Assay results taken from ChEMBL document CHEMBL1201862, “PubChem BioAssay data set” (2004).
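Assay format: 96-well plates, 48-hour exposure. GI50 is the concentration that inhibits growth by half.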 Calls of active or inactive are those of the source. No stated cut-off is given here; in the data, active = GI50 up to about 1.1 µM and inactive = higher.

What was measured:
Test in all cases: inhibition of tumour cell growth, NCI panel, 48 h
786-0 = system: 786-0
COLO 205 = system: COLO 205
HCC 2998 = system: HCC 2998
HOP-62 = system: HOP-62
HT-29 = system: HT-29
K562 = system: K562
MOLT-4 = system: MOLT-4
Malme-3M = system: Malme-3M
OVCAR-4 = system: OVCAR-4
SF-295 = system: SF-295
SF-539 = system: SF-539
SK-MEL-2 = system: SK-MEL-2
SNB-19 = system: SNB-19
SNB-75 = system: SNB-75
SW-620 = system: SW-620

| Structure (SMILES) | GI50 (786-0) | GI50 (COLO 205) | GI50 (HCC 2998) | GI50 (HOP-62) | GI50 (HT-29) | GI50 (K562) | GI50 (MOLT-4) | GI50 (Malme-3M) | GI50 (OVCAR-4) | GI50 (SF-295) | GI50 (SF-539) | GI50 (SK-MEL-2) | GI50 (SNB-19) | GI50 (SNB-75) | GI50 (SW-620) |
| --- | --- | --- | --- | --- | --- | --- | --- | --- | --- | --- | --- | --- | --- | --- | --- |
| CN(C(=O)C12C3C4C5C3C1(C(=O)O)C5C42)C(C)(C)C (stereo not given) | > 100 µM (inactive) | 28 µM (inactive) | > 100 µM (inactive) | > 100 µM (inactive) | 78.5 µM (inactive) | 44.6 µM (inactive) | > 100 µM (inactive) | > 100 µM (inactive) | > 100 µM (inactive) | > 100 µM (inactive) | > 100 µM (inactive) | > 100 µM (inactive) | > 100 µM (inactive) | > 100 µM (inactive) | 23.9 µM (inactive) |
| CCOC(=O)[C@H]1Nc2ccc(O)cc2C2c3ccccc3CC21 (stereo not given in full) | 77.8 µM (inactive) | > 100 µM (inactive) | 49 µM (inactive) | > 100 µM (inactive) | > 100 µM (inactive) | 52.5 µM (inactive) | 33 µM (inactive) | > 100 µM (inactive) | 42.1 µM (inactive) | > 10 µM (inactive) | > 100 µM (inactive) | > 100 µM (inactive) | > 100 µM (inactive) | 36.9 µM (inactive) | > 100 µM (inactive) |
| COc1cccc(C2C(C(=O)Nc3cc(=O)n(C)c(=O)n3C)=C(C)NC(C)=C2C(=O)Nc2cc(=O)n(C)c(=O)n2C)c1O | > 100 µM (inactive) | > 100 µM (inactive) | > 100 µM (inactive) | > 100 µM (inactive) | > 100 µM (inactive) | > 100 µM (inactive) | > 100 µM (inactive) | > 100 µM (inactive) | > 100 µM (inactive) | > 100 µM (inactive) | > 100 µM (inactive) | > 100 µM (inactive) | > 100 µM (inactive) | 23.9 µM (inactive) | > 100 µM (inactive) |
| Cc1ccc(S(=O)(=O)C2CC2(Cl)Cl)cc1 (stereo not given) | 20.7 µM (inactive) | 21.6 µM (inactive) | 44.4 µM (inactive) | – | 18.8 µM (inactive) | 26.5 µM (inactive) | 13.9 µM (inactive) | 19.6 µM (inactive) | 0.0162 µM (active) | 38.6 µM (inactive) | 31.4 µM (inactive) | 33.2 µM (inactive) | > 100 µM (inactive) | 55.7 µM (inactive) | 22.3 µM (inactive) |
| Cc1ccc(S(=O)(=O)NC2(C=O)CCC(C(C)(C)C)CC2)cc1 (stereo not given) | 37.9 µM (inactive) | 26.7 µM (inactive) | 36.9 µM (inactive) | > 100 µM (inactive) | 32.1 µM (inactive) | 28.8 µM (inactive) | 16.5 µM (inactive) | 35.2 µM (inactive) | 27.7 µM (inactive) | 31.3 µM (inactive) | 44.6 µM (inactive) | 44.6 µM (inactive) | 68.7 µM (inactive) | 45.2 µM (inactive) | 70.3 µM (inactive) |
| N#CC1=C(c2ccccc2)OC2(N)OC(c3ccccc3)=C(C#N)C12C#N (stereo not given) | > 100 µM (inactive) | > 100 µM (inactive) | > 100 µM (inactive) | > 100 µM (inactive) | > 100 µM (inactive) | > 100 µM (inactive) | > 100 µM (inactive) | > 100 µM (inactive) | 60.3 µM (inactive) | > 100 µM (inactive) | > 100 µM (inactive) | > 100 µM (inactive) | > 100 µM (inactive) | 43.6 µM (inactive) | > 100 µM (inactive) |
| COc1nc2c(c(O)c(C)c(=O)n2OC2OCC(OC(C)=O)C(OC(C)=O)C2OC(C)=O)c(=O)n1C (stereo not given) | > 100 µM (inactive) | > 100 µM (inactive) | > 100 µM (inactive) | > 100 µM (inactive) | > 100 µM (inactive) | > 100 µM (inactive) | > 100 µM (inactive) | – | > 100 µM (inactive) | > 100 µM (inactive) | 60.4 µM (inactive) | > 100 µM (inactive) | > 100 µM (inactive) | > 100 µM (inactive) | > 100 µM (inactive) |
| O=c1[nH]cc(F)c(=O)n1C1OC(CO)C(O)C1O (stereo not given) | > 100 µM (inactive) | > 100 µM (inactive) | > 100 µM (inactive) | > 100 µM (inactive) | > 100 µM (inactive) | > 100 µM (inactive) | > 100 µM (inactive) | > 100 µM (inactive) | > 100 µM (inactive) | > 100 µM (inactive) | – | > 100 µM (inactive) | > 100 µM (inactive) | > 100 µM (inactive) | > 100 µM (inactive) |
| CCOc1ccc2c(c1)[n+]([O-])c(C(N)=O)c(N)[n+]2[O-] | > 100 µM (inactive) | > 100 µM (inactive) | – | > 100 µM (inactive) | > 100 µM (inactive) | > 100 µM (inactive) | > 100 µM (inactive) | > 100 µM (inactive) | > 100 µM (inactive) | > 100 µM (inactive) | > 100 µM (inactive) | > 100 µM (inactive) | > 100 µM (inactive) | > 100 µM (inactive) | > 100 µM (inactive) |
| O=C(O)/C(Cl)=C(\Cl)Nc1cccc(C(F)(F)F)c1 | > 100 µM (inactive) | > 100 µM (inactive) | > 100 µM (inactive) | > 100 µM (inactive) | > 100 µM (inactive) | > 100 µM (inactive) | – | > 100 µM (inactive) | > 100 µM (inactive) | > 100 µM (inactive) | – | – | – | > 100 µM (inactive) | > 100 µM (inactive) |
| COC(=O)C(C(=O)C(=O)Nc1ccc(C(F)(F)F)cc1[N+](=O)[O-])c1csc(-n2nc(-c3ccccc3)cc2-c2ccccc2)n1 (stereo not given) | > 100 µM (inactive) | > 100 µM (inactive) | > 100 µM (inactive) | > 100 µM (inactive) | > 100 µM (inactive) | > 100 µM (inactive) | > 100 µM (inactive) | > 100 µM (inactive) | > 100 µM (inactive) | > 100 µM (inactive) | > 100 µM (inactive) | > 100 µM (inactive) | > 100 µM (inactive) | > 100 µM (inactive) | > 100 µM (inactive) |
| Cc1cc2c(C(C)C)c(O)c(O)c(/C=N\CCO)c2c(O)c1-c1c(C)cc2c(C(C)C)c(O)c(O)c(/C=N/CCO)c2c1O | 2.1 µM (inactive) | 1.63 µM (inactive) | 2.9 µM (inactive) | 2.6 µM (inactive) | 2.28 µM (inactive) | 1.02 µM (active) | 0.527 µM (active) | 2.47 µM (inactive) | 3.6 µM (inactive) | 2.15 µM (inactive) | 2.54 µM (inactive) | 3.15 µM (inactive) | 2.05 µM (inactive) | 2.67 µM (inactive) | 3.83 µM (inactive) |
| CCCC(S(=O)(=O)c1ccccc1)S(=O)(=O)c1ccccc1 | > 100 µM (inactive) | – | > 100 µM (inactive) | > 100 µM (inactive) | > 100 µM (inactive) | > 100 µM (inactive) | > 100 µM (inactive) | > 100 µM (inactive) | > 100 µM (inactive) | 83.4 µM (inactive) | > 100 µM (inactive) | > 100 µM (inactive) | – | > 100 µM (inactive) | > 100 µM (inactive) |
| C[C@@H]1OC(=O)N2CCCC(=C3SCCCS3)C12 (stereo not given in full) | > 100 µM (inactive) | > 100 µM (inactive) | – | – | 70.1 µM (inactive) | 43.6 µM (inactive) | 33.3 µM (inactive) | > 100 µM (inactive) | > 100 µM (inactive) | 90.2 µM (inactive) | > 100 µM (inactive) | > 100 µM (inactive) | > 100 µM (inactive) | 51.2 µM (inactive) | > 100 µM (inactive) |
| COC(=O)CCC(=O)CC(=O)C(=O)Nc1c(Cl)cc([N+](=O)[O-])cc1Cl | > 100 µM (inactive) | > 100 µM (inactive) | > 100 µM (inactive) | > 100 µM (inactive) | > 100 µM (inactive) | > 100 µM (inactive) | > 100 µM (inactive) | > 100 µM (inactive) | > 100 µM (inactive) | > 100 µM (inactive) | > 100 µM (inactive) | > 100 µM (inactive) | > 100 µM (inactive) | 47.2 µM (inactive) | – |
| Nc1nc2c(ncn2CCCC(c2ccccc2)P(=O)(O)O)c(=O)[nH]1 (stereo not given) | > 100 µM (inactive) | > 100 µM (inactive) | > 100 µM (inactive) | > 100 µM (inactive) | > 100 µM (inactive) | > 100 µM (inactive) | > 100 µM (inactive) | > 100 µM (inactive) | – | > 100 µM (inactive) | > 100 µM (inactive) | > 100 µM (inactive) | > 100 µM (inactive) | > 100 µM (inactive) | > 100 µM (inactive) |
| O=C1C(N2C(=O)c3ccccc3C2=O)CN1C(COCc1ccccc1)c1ccc(OCc2ccccc2)cc1 (stereo not given) | > 100 µM (inactive) | > 100 µM (inactive) | > 100 µM (inactive) | > 100 µM (inactive) | > 100 µM (inactive) | > 100 µM (inactive) | > 100 µM (inactive) | > 100 µM (inactive) | > 100 µM (inactive) | > 100 µM (inactive) | > 100 µM (inactive) | – | > 100 µM (inactive) | > 100 µM (inactive) | > 100 µM (inactive) |
| COc1c(OC2OC(CO)C(O)C(O)C2O)cc2c(c1OC)-c1ccc(OC)c(=O)cc1[C@@H](NC(C)=O)CC2 (stereo not given in full) | > 100 µM (inactive) | > 100 µM (inactive) | > 93.3 µM (inactive) | > 100 µM (inactive) | > 100 µM (inactive) | 52.1 µM (inactive) | > 100 µM (inactive) | 61.5 µM (inactive) | > 100 µM (inactive) | > 89.7 µM (inactive) | 64.9 µM (inactive) | 35.1 µM (inactive) | > 100 µM (inactive) | 25.8 µM (inactive) | > 81.8 µM (inactive) |
